# Measured values from patent publication US6887896B1, “7-[(7-Alkoxy)-chrom-3-en-6-yl]-heptatrienoic acid and 7-[(3-alkoxy)-5,6-dihydronaphthalen-2-yl]-heptatrienoic acid derivatives having serum glucose reducing activity” (Allergan, Inc., priority 2003, dated 2005).
# Tests used:
# [1] = target: T1, RARβ (Homo sapiens, UniProt P10826); test: ligand binding assay, RARβ; conditions: read-out: RAR Bind. Ki β
# T1 sequence (P10826 1-455): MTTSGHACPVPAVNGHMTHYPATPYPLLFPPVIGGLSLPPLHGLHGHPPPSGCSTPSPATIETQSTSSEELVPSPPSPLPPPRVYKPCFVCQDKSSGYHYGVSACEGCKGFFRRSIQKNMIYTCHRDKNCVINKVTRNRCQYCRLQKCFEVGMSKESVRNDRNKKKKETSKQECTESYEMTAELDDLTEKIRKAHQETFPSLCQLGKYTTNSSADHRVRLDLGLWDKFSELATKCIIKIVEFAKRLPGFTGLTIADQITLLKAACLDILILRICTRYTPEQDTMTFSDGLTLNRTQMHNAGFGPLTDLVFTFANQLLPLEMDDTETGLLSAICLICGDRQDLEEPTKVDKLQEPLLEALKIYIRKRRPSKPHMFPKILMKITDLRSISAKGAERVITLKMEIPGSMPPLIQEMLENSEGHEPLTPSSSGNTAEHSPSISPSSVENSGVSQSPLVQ
# From the text: (§1) Specifically, one such assay is a chimeric receptor transactivation assay which tests for agonist-like activity in the R RAPE and RAR7 receptor subtypes, and which is based on work published by Feigner, P. L. and Holm, M (1989) Focus, 112 is described in detail in U.S. Pat. No. 5,455,265. The specification of U.S. Pat. No. 5,455,265 is hereby expressly incorporated by reference. A holoreceptor transactivation assay and a ligand binding assay which measure the antagonist/agonist like activity of the compounds of the invention, or their ability to bind to the several retinoid receptor subtypes, respectively, are described in published PCT Application No. WO WO93/11755 (particularly on pages 30-33 and 37-41) published on Jun. 24, 1993, the specification of which is also incorporated herein by reference. A detailed experimental procedure for holoreceptor transactivations has been described by Heyman et al. Cell 68, 397-406, (1992); Allegretto et al. J. Biol. Chem. 268, 26625-26633, and Mangelsdorf et al. The Retinoids: Biology, Chemistry and Medicine, pp 319-349, Raven Press Ltd., New York, which are expressly incorporated herein by reference. The results obtained in this assay are expressed in EC50 numbers, as they are also in the chimeric receptor transactivation assay. The results of the ligand binding assay are expressed in Ki numbers. (See Cheng et al. Biochemical Pharmacology Vol. 22 pp 3099-3108, expressly incorporated herein by reference.)
# (§2) Generally speaking, in the tables disclosing the results of transactivation and binding assays the numbers in parentheses indicate efficacy as a percentage compared to the standard compound, (2E,4E,1′S,2′S)-3-methyl-5-[2′-methyl-2′-(5,5,8,8-tetramethyl-5,6,7,8-tetrahydro-naphthalen-2-yl)cyclopropyl]-penta-2,4-dienoic acid and the other numbers indicate the measured EC50 and K; in nanomolar concentration.
# [2] = target: T2, RXRα (Homo sapiens, UniProt P19793); test: holoreceptor transactivation assay, RXRα; type: cell-based; conditions: for EC50: holoreceptor transactivation, read-out: RXR Trans. EC50 α; for Emax: percentage compared to the standard compound, read-out: RXR Trans. efficacy (number in parentheses) α
# T2 construct: expressed in transfected cells
# T2 sequence (P19793 1-462): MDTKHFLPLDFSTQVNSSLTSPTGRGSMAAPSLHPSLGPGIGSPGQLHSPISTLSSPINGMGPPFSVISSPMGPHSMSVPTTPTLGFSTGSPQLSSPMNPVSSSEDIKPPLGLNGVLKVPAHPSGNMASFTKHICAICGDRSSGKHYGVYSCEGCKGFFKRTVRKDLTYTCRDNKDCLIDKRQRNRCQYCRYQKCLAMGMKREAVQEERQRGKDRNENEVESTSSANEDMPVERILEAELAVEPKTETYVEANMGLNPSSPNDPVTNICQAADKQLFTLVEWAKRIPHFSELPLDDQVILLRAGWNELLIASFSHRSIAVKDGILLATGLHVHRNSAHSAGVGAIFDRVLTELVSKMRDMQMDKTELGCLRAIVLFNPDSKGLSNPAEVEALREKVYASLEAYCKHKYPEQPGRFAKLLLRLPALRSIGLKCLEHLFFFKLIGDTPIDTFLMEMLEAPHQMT
# From the text: as §1
# (§3) Efficacy in a transactivation assay is expressed as a percentage of the maximum potency attained by the compound compared to a standard which, in this case, is the compound named (2E,4E,1′S,2′S)-3-methyl-5-[2′-methyl-2′-(5,5,8,8-tetramethyl-5,6,7,8-tetrahydro-naphthalen-2-yl)-cyclopropyl]-penta-2,4-dienoic acid. This standard compound is described in U.S. Pat. No. 6,114,533.
# (§4) The specification of this application for patent is organized in several sections in accordance with structural Formulas A through F each of which discloses a group of preferred compounds within the scope of the invention. Tables that disclose the activity of certain exemplary compounds of the invention in the above-described RXR receptor transactivation and binding assays are found in the corresponding sections. […] The transactivation data pertaining to the activation of RXR receptors were obtained in the holoreceptor assay.
# as §2
# [3] = target: T3, RARα (Homo sapiens, UniProt P10276); test: ligand binding assay, RARα; conditions: read-out: RAR Bind. Ki α
# T3 sequence (P10276 1-462): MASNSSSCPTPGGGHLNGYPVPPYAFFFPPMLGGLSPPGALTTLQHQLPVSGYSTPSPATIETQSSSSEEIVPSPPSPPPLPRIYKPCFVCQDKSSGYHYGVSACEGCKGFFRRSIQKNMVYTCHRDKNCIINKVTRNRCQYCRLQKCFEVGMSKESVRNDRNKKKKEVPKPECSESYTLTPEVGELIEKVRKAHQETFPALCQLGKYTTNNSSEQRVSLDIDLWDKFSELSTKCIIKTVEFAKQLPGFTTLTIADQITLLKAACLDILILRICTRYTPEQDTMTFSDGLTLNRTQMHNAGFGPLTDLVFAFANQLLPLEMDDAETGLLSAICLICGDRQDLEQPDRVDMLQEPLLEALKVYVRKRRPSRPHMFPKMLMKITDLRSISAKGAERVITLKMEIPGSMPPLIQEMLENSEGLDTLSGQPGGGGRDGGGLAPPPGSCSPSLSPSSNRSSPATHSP
# From the text: as §1, §2
# [4] = target: T4, RARβ (Homo sapiens, UniProt P10826); test: chimeric receptor transactivation assay, RARβ; type: cell-based; conditions: for EC50: chimeric receptor transactivation, read-out: RAR Trans. EC50 β; for Emax: percentage compared to the standard compound, read-out: RAR Trans. efficacy (number in parentheses) β
# T4 sequence (P10826 183-417 limits assumed): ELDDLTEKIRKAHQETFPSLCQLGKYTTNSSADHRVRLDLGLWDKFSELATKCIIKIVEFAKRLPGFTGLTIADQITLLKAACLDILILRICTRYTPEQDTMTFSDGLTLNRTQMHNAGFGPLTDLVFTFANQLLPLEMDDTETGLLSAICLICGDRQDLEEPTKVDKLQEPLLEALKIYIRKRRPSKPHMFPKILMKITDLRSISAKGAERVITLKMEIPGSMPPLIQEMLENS
# From the text: as §1, §3, §4, §2
Compound,Ki [1],EC50 [2],Emax [2],Ki [3],EC50 [4],Emax [4]
"CCC1=CC(C)(C)Oc2cc(OC)c(\C(C)=C/C=C/C(C)=C/C(=O)O)cc21 [Compound 42, 7-(4-Ethyl-7-methoxy-2,2-dimethyl-2H-chromen-6-yl)-3-methyl-octa-2E,4E,6Z-trienoic acid]",9900 nM,6 nM,99%,8900 nM,845 nM,34%
"CC/C(=C/C=C/C(C)=C/C(=O)O)c1cc2c(cc1OC)OC(C)(C)C=C2C(C)C [Compound 44, 7-(4-Isopropyl-7-methoxy-22-dimethyl-2H-chromen-6-yl)-3-methyl-nona-2E,4E,6Z-trienoic acid]",617 nM,0.3 nM,89%,215 nM,75 nM,25%
"CCOc1cc2c(cc1\C(=C/C=C/C(C)=C/C(=O)O)CC)C(C)=CC(C)(C)O2 [Compound 46, 7-(7-Ethoxy-2,2,4-trimethyl-2H-chromen-6-yl)-3-methyl-nona-2E,4E,6Z-trienoic acid]",614 nM,> 1000 nM,–,623 nM,305 nM,6%
"COc1c(\C(C)=C/C=C/C(C)=C/C(=O)O)cc2c(c1Cl)OC(C)(C)C=C2C(C)C [Compound 49, 7-(8-Chloro-4-isopropyl-7-methoxy-2,2-dimethyl-2H-chromen-6-y)-3-methyl-octa-2E,4E,6Z-trienoic acid]",4100 nM,0.1 nM,93%,1000 nM,132 nM,12%
"COc1cc2c(cc1\C(C)=C(F)/C=C/C(C)=C/C(=O)O)C(C(C)C)=CC(C)(C)O2 [Compound 121, (2E,4E,6E)-6-Fluoro-7-(4-isopropyl-7-methoxy-2,2-dimethyl-2H-chromen-6-yl)-3-methyl-octa-2,4,6-trienoic acid]",2100 nM,5 nM,59%,692 nM,46600 nM,–
CCCOc1cc2c(cc1\C(C)=C(F)/C=C/C(C)=C/C(=O)O)C(C(C)C)=CCC2(C)C [Compound A-80],552 nM,–,–,841 nM,80 nM,13%
"CC(/C=C/C(F)=C(/C)c1cc2c(cc1OCC1CC1)C(C)(C)CC=C2C(C)C)=C\C(=O)O [Compound A-81, (2E,4E,6E)-6-Fluoro-3-(4-dimethyl-6-(cyclopropyl)methoxy-1-isopropyl-3,4-dihydronaphthalen-7-yl)-3-methyl-2,4.6-octa-trienoic acid]",927 nM,–,–,592 nM,203 nM,23%
"CCCOc1cc2c(cc1\C(C)=C(F)/C=C/C(C)=C/C(=O)O)C(C(C)(C)C)=CCC2(C)C [Compound A-84, (2E,4E,6E)-6-Fluoro-3-(4,$dimethyl-6-n-propoxy-1-tert-butyl-3,4-dihydronaphthalen-7-yl)-3-methyl-2,4,6-octatrienoic acid]",620 nM,–,–,1100 nM,56 nM,8%

# Second part, the compound after the results:
Ki [1],EC50 [2],Emax [2],Ki [3],EC50 [4],Emax [4],Compound
359 nM,3 nM,62%,261 nM,316 nM,26%,CCOc1cc2c(cc1\C(C)=C(F)/C=C/C(C)=C/C(=O)O)C(C)=CCC2(C)C
378 nM,2 nM,89%,243 nM,57 nM,37%,"COc1cc2c(cc1\C(C)=C/C=C/C(C)=C/C(=O)O)C(C(C)C)=CC(C)(C)O2 [Compound 43, 7-(4-Isopropyl-7-methoxy-2,2-dimethyl-2H-chromen-6-yl)-3-methyl-octa-2E,4E,6Z-trienoic acid]"
196 nM,78 nM,5%,3 nM,> 1000 nM,–,"CCOc1cc2c(cc1\C(C)=C/C=C/C(C)=C/C(=O)O)C(CC)=CC(C)(C)O2 [Compound 45, 7-(7-Ethoxy-4-ethyl-2,2-dimethyl-2H-chromen-6-yl)-3-methyl-octa-2E,4E,6Z-trienoic acid]"
388 nM,–,–,302 nM,90 nM,22%,"CCCOc1cc2c(cc1\C(C)=C(F)/C=C/C(C)=C/C(=O)O)C(c1ccccc1)=CC(C)(C)O2 [Compound 128, (2E,4E,6E)-7-(2,2-Dimethyl-4-phenyl-7-propoxy-2H-chromen-6-yl)-6-fluoro-3-methyl-octa-2,4,6-trienoic acid]"
490 nM,44 nM,99%,177 nM,563 nM,24%,"CC/C(=C(F)/C=C/C(C)=C/C(=O)O)c1cc2c(cc1OC)OC(C)(C)C=C2C [Compound 129, 6-Fluoro-7-(7-methoxy-2,2,4-trimethyl-2H-chromen-6-yl)-3-methyl-nona-2E,4E,6E-trienoic acid]"
547 nM,0.5 nM,80%,133 nM,65 nM,31%,"CC/C(=C(F)/C=C/C(C)=C/C(=O)O)c1cc2c(cc1OC)OC(C)(C)C=C2C(C)C [Compound 130, 6-Fluoro-7-(4-isopropyl-7-methoxy-2,2-dimethyl-2H-chromen-6-yl)-3-methyl-nona-2E,4E,6E-trienoic acid]"
